According to patent publication US12365675B2, “Stable heavy isotopes in amide functional groups and uses thereof” (RISEN (SUZHOU) PHARMA TECH CO., LTD., priority 2020, dated 2025):

What was measured:
[1] = Pharmacokinetic studies in beagle dogs, single oral dose; assay type: in vivo; conditions: for CLz/F: single oral dose 2.5 mg/kg each, co-administered, plasma
Procedure: Male and female beagle dogs (n=4; 2 males and 2 females) were used in the study. A single oral dose of Alpelisib (2.5 mg/kg) and Compound 1 (^18O1-Alpelisib) (2.5 mg/kg) were co-administered (at a total dose of 5 mg/kg) in DMSO and 0.5% carboxymethyl cellulose sodium (CMC-Na) aqueous solution (5:95, v/v). Blood samples were collected for analysis of Alpelisib and ^18O1-Alpelisib at 0.25, 0.5, 1, 1.5, 2, 3, 4, 6, 8, 10, 12 and 24 h. In FIG. 4, lines labelled with -∘- and -Δ- represent the plasma concentrations of Alpelisib-^18O1 and Alpelisib, respectively, following oral administration of the same dose of Alpelisib-^18O1 and Alpelisib to the animals.

[2] = Pharmacokinetic studies in Sprague Dawley (SD) rats, oral gavage; assay type: in vivo; conditions: both doses tested (2.5 and 0.322 mg/kg), greatest effect at low dose
Procedure: (a) SD rats, six in a group (n=6), were grouped randomly. Compound 1 (Alpelisib-^18O1) and Alpelisib were mixed and adjusted to 1:1 molar ratio in dosing solution (1.25 mg/mL); and the dosing solution was administered to the animals, via oral gavage, at a dose level of 2.5 mg/kg. Blood samples were collected at pre-set time points following drug administration, at 0.167, 0.5, 1, 2, 3, 4, 6, 8, and 24 hours (h). The blood samples were converted to plasma samples using standard techniques, and the latter samples were analyzed to determine the concentrations of Compound 1 and Alpelisib. In FIG. 1a, lines labelled with -∘- and --Δ-- represent the plasma concentrations of Alpelisib-^18O1 and Alpelisib, respectively, following oral administration of the same molar dose of Alpelisib-^18O1 and Alpelisib to the animals.
(b) Similarly, Compound 1 (Alpelisib-^18O1) and Alpelisib were administered to the animals (SD rats, n=4), via oral gavage, at a low dose (dose level of 0.322 mg/kg). Blood samples were collected at pre-set time points following drug administration, at 0.167, 0.5, 1, 2, 4, 6, 8, 10 and 24 hours (h). The blood samples were converted to plasma samples using standard techniques, and the latter samples were analyzed to determine the concentrations of Compound 1 and Alpelisib. […]

[3] = Pharmacokinetic studies in ICR mice, oral gavage; assay type: in vivo; conditions: same dose
Procedure: ICR mice, 48, in 6 groups (n=8), were grouped randomly. Compound 1 (Alpelisib-^18O1) and Alpelisib were mixed and adjusted to 1:1 molar ratio in dosing solution (1.25 mg/mL); and the dosing solution was administered to the animals, via oral gavage, at a dose level of 2.5 mg/kg. Blood samples were collected (a group of 8 animals for each time point) at time points, after dosing, at 0.5, 1, 2, 4, 8, and 12 h. The blood samples were converted to plasma samples using standard techniques, and the latter samples were analyzed to determine the concentrations of Compound 1 and Alpelisib. In FIG. 2, lines labelled with -∘- and --Δ-- represent the plasma concentrations of Alpelisib-^18O1 and Alpelisib, respectively, following oral administration of the same dose of Alpelisib-^18O1 and Alpelisib to the animals.

[4] = M4 and M4-18O1 production in liver S9 culture media; assay type: in vitro ADME, monkey, human, mini pig, Wistar rat
Procedure: Stock solution (50 μL) containing equal molar concentration of Alpelisib and Alpelisib-^18O1 was diluted with pre-warmed (37° C., water bath) 0.1 M Tris-Acetate buffer; and the concentration of each compound in this working solution was 4.5 μM. In each incubation well were added the above working solution (50 μL) and a liver S9 solution (50 μL), mixed well. The sample was pre-incubated for 5 min, following by addition, to each well, of β-NADPH dosing solution (100 μL). The sample plate was incubated at 37° C., and analyzed at time points of 0, 15, 30, 60, and 240 min., in triplicates. Sample analysis: at a pre-set time-point, a stop solution (800 μL, acetonitrile) was added to each well; the sample was well-mixed (Vortex), and centrifuged at 12000 rpm for 5 minutes; the supernatant was transferred to analytical sample vial, and then analyzed with LC-MS/MS, for M4 and M4-^18O1. […] Liver S9 used in the experiment: (a) monkey liver S9, (b) pooled human S9, (c) mini pig liver S9, and (d) male Wistar rat Liver S9.

CLz/F [1]	plasma concentration compared with Alpelisib [2]	plasma concentration compared with Alpelisib [3]	plasma concentration compared with Alpelisib ([1]; oral, same dose)	concentration of the metabolite M4-18O1 compared to that of M4 from alpelisib ([4]; liver S9 (monkey, pooled human, mini pig, male Wistar rat), 37° C., β-NADPH, 0-240 min, equimolar co-incubation)	metabolism compared to that of Alpelisib ([4]; liver S9 incubation, taken together with PK results)	SMILES
0.41 L/h/kg	–	–	–	–	–	Cc1nc(NC(=O)N2CCC[C@H]2C(N)=O)sc1-c1ccnc(C(C)(C)C(F)(F)F)c1 [Alpelisib, N-(4-methyl-5-(2-(2,2,2-trifluoro-1,1-dimethylethyl)-4-pyridinyl)-2-thiazolyl)aminocarbonyl-L-prolinamide, reference compound]
0.38 L/h/kg	higher than for Alpelisib	higher than for Alpelisib	higher than for Alpelisib	decreased	reduced	Cc1nc(NC(=O)N2CCC[C@H]2C(N)=[18O])sc1-c1ccnc(C(C)(C)C(F)(F)F)c1 [Compound 1, N-(4-methyl-5-(2-(2,2,2-trifluoro-1,1-dimethylethyl)-4 pyridinyl)-2-thiazolyl)aminocarbonyl-L-prolin-^18O-amide]
